Measurements taken from EP0900210B1, “ANTIVIRALLY ACTIVE HETEROCYCLIC AZAHEXANE DERIVATIVES” (Novartis AG, priority 1996, dated 1997).
pIC50: −log10 of the molar value. Where two headings read alike, the source gives them in different places.

Columns and labels:
[1] = biological target: T1, HIV-1-protease (Human immunodeficiency virus type 1 group M subtype B, UniProt P04585); assay: Inhibition of HIV-1-protease with icosapeptide substrate […] (HPLC); format: biochemical
T1 construct: made in house
Protocol: The inhibitory action of the compounds of formula I on the proteolytic activity of HIV-1-protease can be shown, for example, according to known procedures (see A. D. Richards et al., J. Biol. Chem. 265(14), 7733-7736 (1990)). In that method the inhibition of the action of HIV-1-protease (preparation: see S. Billich et al., J. Biol. Chem. 263(34), 17905-17908 (1990)) is measured in the presence of the icosapeptide […] (a synthetic substrate of HIV-1-protease, prepared by peptide synthesis in accordance with known procedures (see J. Schneider et al., Cell 54, 363-368 (1988)), which contains as substrate analogue one of the cleavage sites of the gag-precursor protein (natural substrate of HIV-1-protease). That substrate and its cleavage products are analysed by high performance liquid chromatography (HPLC).
The test compound is dissolved in dimethyl sulfoxide. The enzymatic test is carried out by adding suitable dilutions of the inhibitor in 20 mM β-morpholinoethanesulfonic acid (MES) buffer pH 6.0 to the test mixture. That mixture consists of the above-mentioned icosapeptide (122 µM) in 20 mM MES-buffer pH 6.0. 100 µl are used per test batch. The reaction is started by the addition of […] of HIV-1-protease solution and is stopped after one hour's incubation at 37°C by the addition of 10 µl of 0.3M HClO4. After centrifugation of the sample at 10 000 x g for 5 minutes, 20 µl of the resulting supernatant are applied to a 125 x 4.6 mm Nucleosil® C18-5m-HPLC column (reversed-phase material supplied by Macherey & Nagel, Düren, FRG, based on silica gel that has been charged with C18alkyl chains). The uncleaved icosapeptide and its cleavage products are eluted from the column by means of the following gradient: 100 % eluant 1 → 50 % eluant 1 + 50 % eluant 2 (eluant 1: 10 % acetonitrile, 90 % H2O, 0.1 % trifluoroacetic acid (TFA); eluant 2: 75 % acetonitrile, 25 % H2O, 0.08 % TFA) for 15 minutes, throughflow rate 1 ml/min. The quantification of the eluted peptide fragments is carried out by measuring the peak height of the cleavage product at 215 nm.
Using the test system described above with the icosapeptide […], the IC50 values given below are obtained for the following Examples: […]

[2] = tested on: HIV-1/MN; assay: Protection of MT-2 cells against HIV infection (reverse transcriptase activity in supernatant); format: cell-based; settings: Human immunodeficiency virus 1, MT2, 96 h; read-out: ED90 (the source's name)
Protocol: For this test, MT-2-cells infected with HIV-1/MN are used. MT-2-cells have been transformed with HTLV-1 (a virus causing leukaemia) and a continuous producer thereof; they are therefore especially sensitive to the cytopathogenic effect of HIV. MT-2-cells can be obtained via the AIDS Research and Reference Reagent Program, Division of AIDS, NIAID, NIH from Dr. Douglas Richman (see J. Biol. Chem. 263, 5870-5875 (1988) and also Science 229, 563-566 1985)). The MT-2-cells are cultured in RPMI 1640-medium (Gibco, Scotland; RPMI comprises an amino acid mixture without glutamine) supplemented with 10% heat-inactivated foetal calf serum, glutamine and standard antibiotics. In all cases the cells, and also the virus stock solution used for the infection (HIV-1/MN), are free of mycoplasms. […] The titre of the HIV-1/MN virus stock solution (determined by titration onto MT-2-cells) is 4.2 x 10^5 TCID50/ml (TCID50 = Tissue Culture Infective Dose = dose that infects 50 % of the MT-2-cells). […] Prior to the test, 0.1 % (v/v) [alpha-^32P]dTTP is added to aliquots of the solution in order to establish a radioactivity of 10 µCi/ml.
After mixing, the plate is incubated for 2 hours at 37°C. […] The radioactivity on the filters is measured in a Matrix Packard 96-well counter (Packard, Zürich, Switzerland). […]

[3] = Pharmacokinetics: plasma level in mice after oral administration; format: in vivo, female BALB/c mice; settings: mouse, oral administration of 120 mg/kg
Protocol: The blood is centrifuged (12 000 x g, 5 min) and the plasma removed.
The flow rate is 1 ml/min.

[4] = tested on: HIV-1 (infectious clone pNL4-3); assay: Transient DNA transfection assay in HeLaT4 cells, in vitro potency; format: cell-based; settings: Human immunodeficiency virus 1, HeLaT4
Text: (§1) By way of PCR-supported mutagenesis and cloning, HIV-1 protease mutants are generated that are based on the infectious clone pNL4-3 (freely available via the "NIH AIDS reference and reagent program", the original reference is A. Adachi et al. J. Virol (1986) 59, 284-91 - but it can, of course, be any other HIV clone, or even clinical material, provided that comparability is ensured). […] The cloned fragments are, for example, only 500 base pairs in length, all of the remainder being unchanged. By using mutations in always the same clone, direct comparability is ensured, which would not be the case in a direct comparison of clinical samples or of different HIV clones. […] That system is used as a transient DNA transfection system for tests: • 1) in order to identify possible cross-resistances of protease variants to several protease inhibitors; and • 2) in order to establish the potency and resistance profile of novel inhibitor candidates.
(§2) Instead of the strains mentioned, there may be used any human T4-positive cells, such as the HeLa T4 cells, deposited under that name by Richard Axel and Paul Maddon in "NIH AIDS reference and reagent program" and obtainable via that source.

[5] = tested on: 451/76F strain; settings: 451/76F strain established against Lasinavir; comparison with saquinavir, indinavir, ritonavir
Text: as §1, §2

[6] = tested on: 46I/47V/50V (VX478); assay: Transient DNA transfection assay in HeLaT4 cells, other resistant strains; format: cell-based, HIV-1; settings: 10nM; strains e.g. 46I/47V/50V (VX478); not quantified
Text: as §1, §2

[7] = icosapeptide […] 122 µM, 20 mM MES pH 6.0, one hour at 37°C, read-out: IC50

Row | SMILES | pIC50 [1, 7] | further results
1 | COC(=O)N[C@H](C(=O)N[C@@H](Cc1ccccc1)[C@@H](O)CN(Cc1ccc(-c2ccccn2)cc1)NC(=O)[C@@H](NC(=O)OC)C(C)(C)C)C(C)(C)C [Example 46, 1-[4-(Pyridin-2-yl)-phenyl]-4(S)-hydroxy-5(S)-2,5-bis[N-(N-methoxycarbonyl-(L)-tert-leucyl)amino]-6-phenyl-2-azahexane] | 7.59 | EC90 [2]: 3 nM; concentration at 0.5 h ([3]; 30 min after administration): 21.8 µM; concentration at 1.5 h ([3]; 90 min after administration): 31.8 µM; IC90 [4]: < 30 nM; activity against a resistant variant [5]: comparable with saquinavir and better than that of indinavir; activity compared with other strains [6]: more potent (not quantified) than that of saquinavir, ritonavir and indinavir
2 | CC[C@H](C)[C@H](NC(=O)OC)C(=O)N[C@@H](Cc1ccccc1)[C@@H](O)CN(Cc1ccc(-c2ccccn2)cc1)NC(=O)[C@@H](NC(=O)OC)[C@@H](C)CC [Example 47, [4-(Pyridin-2-yl)-phenyl]-4(S)-hydroxy-5(S)-2,5-bis[N-(N-methoxycarbonyl-(L)-iso-leucyl)amino]-6-phenyl-2-azahexane] | 7.40 | 
3 | COC(=O)N[C@H](C(=O)N[C@@H](Cc1ccccc1)[C@@H](O)CN(Cc1ccc(-c2ccccn2)cc1)NC(=O)[C@@H](NC(=O)OC)C(C)(C)C)C(C)C [Example 49, 1-[4-(Pyridin-2-yl)-phenyl]-4(S)-hydroxy-2-N-(N-methoxy-carbonyl-(L)-tert-leucyl)amino-5(S)-N-(N-methoxycarbonyl-(L)-valyl)amino-6-phenyl-2-azahexane] |  | pIC50 [1]: 7.70
4 | COC(=O)N[C@H](C(=O)N[C@@H](Cc1ccccc1)[C@@H](O)CN(Cc1ccc(-c2nnn[nH]2)cc1)NC(=O)[C@@H](NC(=O)OC)C(C)(C)C)C(C)(C)C [Example 26, 1-[4-(Tetrazol-5-yl)-phenyl]-4(S)-hydroxy-5(S)-2,5-bis[N-(N-methoxycarbonyl-(L)-tert-leucyl)amino]-6-phenyl-2-azahexane] | 7.68 | 
5 | COC(=O)N[C@H](C(=O)N[C@@H](Cc1ccccc1)[C@@H](O)CN(Cc1ccc(-c2nnn(C(C)(C)C)n2)cc1)NC(=O)[C@@H](NC(=O)OC)C(C)(C)C)C(C)(C)C [Example 34, 1-[4-(2-tert-Butyl-2H-tetrazol-5-yl)-phenyl]-4(S)-hydroxy-5(S)-2,5-bis[N-(N-methoxycarbonyl-(L)-tert-leucyl)amino]-6-phenyl-2-azahexane] | 7.14 | 
6 | CC[C@H](C)[C@H](NC(=O)OC)C(=O)NN(Cc1ccc(-c2cncs2)cc1)C[C@H](O)[C@H](Cc1ccccc1)NC(=O)[C@@H](NC(=O)OC)C(C)(C)C [Example 4, 1-[4-(Thiazol-5-yl)-phenyl]-4(S)-hydroxy-2-N-(N-methoxycarbonyl-(L)-iso-leucyl)amino-5(S)-N-(N-methoxycarbonyl-(L)-tert-leucyl)amino-6-phenyl-2-azahexane] | 7.42 | 
7 | COC(=O)N[C@H](C(=O)N[C@@H](Cc1ccccc1)[C@@H](O)CN(Cc1ccc(-c2cnccn2)cc1)NC(=O)[C@@H](NC(=O)OC)C(C)C)C(C)C [Example 40, 1-[4-(Pyrazin-2-yl)-phenyl]-4(S)-hydroxy-5(S)-2,5-bis[N-(N-methoxycarbonyl-(L)-valyl)amino]-6-phenyl-2-azahexane] | 7.68 | 
8 | CC[C@H](C)[C@H](NC(=O)OC)C(=O)N[C@@H](Cc1ccccc1)[C@@H](O)CN(Cc1ccc(-c2cncs2)cc1)NC(=O)[C@@H](NC(=O)OC)C(C)(C)C [Example 11, 1-[4-(Thiazol-5-yl)-phenyl]-4(S)-hydroxy-2-N-(N-methoxycarbonyl-(L)-tert-leucyl)amino-5(S)-N-(N-methoxycarbonyl-(L)-iso-leucyl)amino-6-phenyl-2-azahexane] | 7.43 | 
9 | CC[C@H](C)[C@H](NC(=O)OC)C(=O)N[C@@H](Cc1ccccc1)[C@@H](O)CN(Cc1ccc(-c2cncs2)cc1)NC(=O)[C@@H](NC(=O)OC)[C@@H](C)CC [Example 13, 1-[4-(Thiazol-5-yl)-phenyl]-4(S)-hydroxy-5(S)-2,5-bis[N-(N-methoxycarbonyl-(L)-iso-leucyl)amino]-6-phenyl-2-azahexane] | 7.49 | 
10 | CCOC(=O)N[C@H](C(=O)NN(Cc1ccc(-c2cncs2)cc1)C[C@H](O)[C@H](Cc1ccccc1)NC(=O)[C@@H](NC(=O)OC)C(C)(C)C)C(C)C [Example 6, 1-[4-(Thiazol-5-yl)-phenyl]-4(S)-hydroxy-2-N-(N-ethoxycarbonyl-(L)-valyl)-amino-5(S)-N-(N-methoxycarbonyl-(L)-tert-leucyl)amino-6-phenyl-2-azahexane] | 7.66 | 
